Measurements reported in patent publication US20160047805A1, “IN SITU-DILUTION METHOD AND SYSTEM FOR MEASURING MOLECULAR AND CHEMICAL INTERACTIONS” (FLIR SYSTEMS, INC., priority 2010, published 2016).

Tests used:
[1] = system: immobilized carbonic anhydrase; assay: SPR kinetic analysis, traditional (stepped/sequential multiple) injection method, thermodynamic analysis; conditions: HEPES buffer saline pH 7.4, 10, 20, 30, 40 C, 1:1 binding model
Description: (§1) In Example 1, the kinetic values for the interaction between carboxybeneze sulfonamide and immobilized carbonic anhydrase were determined using a standard multiple injection method and the in situ dilution method described herein. In the classical approach sequential injection method (FIGS. 4A-4D) a series of individual concentrations were prepared as a serial doubling dilution set starting from a neat concentration of 40 mM giving a total of nine different concentrations. These concentrations were made up in the running buffer (i.e HEPES buffer saline, pH 7.4). […] of each sample was injected at […] and allowed dissociate for 300 seconds. Each concentration was repeated in duplicate and the entire analysis was repeated at four different analysis temperatures (10 C, 20 C, 30 C, 40 C—FIGS. 4A-D, respectively). […] In this case a total of three interaction curves is recorded at three different temperatures representing a minimal data set that can be recorded at least an order faster than the conventional approach even normalized for the number replicates and the number of temperatures used. A single neat sample (40 mM) was injected using the in-situ-dilution injection and a serial doubling dilution of analyte was performed on-the-fly yielding a dose response curve. Dissociation was monitored for 200 seconds. This was repeated at three different temperatures. A blank injection was also included at each temperature for double referencing.
(§2) In both data sets the samples were injected over a protein coated and a non-coated surface to enable double referencing of the binding response curves. The resulting referenced binding response curves were then fitted with a kinetic 1:1 binding interaction model and the fitted curves are shown in red. The kinetic values were then analyzed thermodynamically to determined thermodynamic constants for the interaction and these are shown in Tables 1 and 2 below.

[2] = system: immobilized carbonic anhydrase; assay: SPR kinetic analysis, in situ dilution injection method, thermodynamic analysis; conditions: three temperatures (10, 25, 35 °C), 1:1 binding model
Description: as §1, §2

SMILES: NS(=O)(=O)c1ccc(C(=O)O)cc1 [carboxybeneze sulfonamide]
- ΔG‡ Association ([1]; association): 11.60 kcal/mol
- ΔH‡ Association ([1]; association): 3.96 kcal/mol
- ΔS‡ Association ([1]; association): −26.1 cal/mol K
- ΔG‡ Dissociation ([1]; dissociation): 19.32 kcal/mol
- ΔH‡ Dissociation ([1]; dissociation): 14.63 kcal/mol
- ΔS‡ Dissociation ([1]; dissociation): −16.0 cal/mol K
- ΔG‡ Association ([2]; association): 11.1 kcal/mol
- ΔH‡ Association ([2]; association): 4.1 kcal/mol
- ΔS‡ Association ([2]; association): −24 cal/mol K
- ΔG‡ Dissociation ([2]; dissociation): 18.8 kcal/mol
- ΔH‡ Dissociation ([2]; dissociation): 13.1 kcal/mol
- ΔS‡ Dissociation ([2]; dissociation): −20 cal/mol K
